{"source": "patent US20020150990A1", "about": "“Hepatitis C virus peptides” (priority 1992, published 2002)", "key": {"antibodies against HCV [1]": {"tested_on": "antibodies against HCV", "experiment": "PEPSCAN analysis of overlapping octameric peptides of the HCV core protein N-terminal region with HCV-seropositive sera", "type": "binding, human", "conditions": "16 sera assayed by PEPSCAN", "source_text": "The N-terminal 97 amino acid residues of HCV Core protein SEQ ID NO: 8 was mapped with PEPSCAN analysis. This process involved the serological analysis of sequentially overlapping peptides which spanned the region of interest, to identify epitopic domains. Ninety overlapping octameric peptides were synthesized on polypropylene pin supports according to the manufacturer's instructions (Cambridge Research Biochemicals), such that each peptide overlapped with the preceding sequence by the seven N-terminal residues, and with the subsequent peptide by the seven C-terminal residues. Serum or IgG purified from the serum of individuals confirmed to be seropositive for HCV were used to screen the peptides.\nThe assay procedure followed was performed basically as described in the manufacturers instruction manual. The time and temperature of the test antibody incubation differed from that prescribed, thereby decreasing the time taken for each assay.\nSera: A total of 16 sera were assayed by PEPSCAN. These consisted of 12 sera from paid U.S. Donors which were identified as being positive for antibodies against HCV in routine screening at the site of donation. The remaining four sera were from patients diagnosed as having non-A non-B hepatitis, and which were subsequently shown to contain antibodies to HCV. Sera were screened either as the crude serum fraction, or as a caprylic acid preparation. Caprylic acid purification of IgG from the sera was performed as described by Stienbuch and Audran (1969) Arch. Biochem. Biophys. 134, 279-284.\nAssay: The assay format involves sequentially incubating the various pins in microwell plates containing blocking, test antibody, conjugate, and substrate solutions. The immune complex builds up on the pin with the enzyme labelled conjugate being immobilized on the bound anti-peptide antibody from the test serum. When the pin is then immersed in substrate, the enzyme brings about the colour change which is used to quantify the amount of anti-peptide antibody bound.\nBlocking: Pins are immersed in 200 μl of Supercocktail (1% Ovalbumin, 1% bovine serum albumin in 0.15M phosphate buffered saline pH 7.2—0.1% Tween 20) and left to stand at room temperature for 1 hour.\nTest antibody: The test antibody is diluted between 1/200 (IgG) and 1/1000 (serum) in supercocktail. The pins are then stood in this solution (175 μl/well) at 37° C. for 1 hour. After this incubation the pins are washed four times in 0.15M phosphate buffered saline pH 7.2—0.05% Tween 20, each at room temperature for 10 minutes.\nConjugate: Rabbit anti-human IgG coupled to horseradish peroxidase is diluted 1/1000 in supercocktail. The peptide bearing pins are then stood in this solution at room temperature for 1 hour. Once again the pins are then washed four times as above.\nSubstrate: The substrate solution is made up fresh for each assay. To 100 ml of 0.1M phosphate, 0.08M citrate buffer pH 4.0 is dissolved 50 mg of 2,2′-AZINO-bis (3-ethylbenzthiazo-linsulphonic acid (ABTS) and 0.3 μl/ml 30% hydrogen peroxide is added. The pins are immersed in the wells containing substrate solution (150 μl/well) and incubated at room temperature in the dark. Once sufficient colour has developed the reaction is stopped by removing the pins. The plates are then read immediately in a spectrophotometric plate reader at a wavelength of 405 nm. The absorbance values are then plotted against pin number. The epitopic domains are then defined as the continuous sequence of amino acids common to all positive pins in the domain i.e."}, "antibodies against HCV [2]": {"tested_on": "antibodies against HCV", "experiment": "Replacement Net analysis of the core immunodominant epitope YLLPRR with 12 paid donor human sera", "type": "binding", "conditions": "n = 12 sera; for Frequency of relative signal strength: All: acceptable when signal 80% of the parent sequence or greater; for Frequency of relative signal strength: 2nd-5th / Frequency of relative signal strength: 6th-10th / Frequency of relative signal strength: Below 10th / Frequency of relative signal strength: Highest: rank of replacement residue at that position", "method": "The Replacement Net Method was used to sequentially replace each of the constituent amino acid residues in the epitope with each of the other genetically encoded amino acids.\nFor Replacement Net analysis, a parent sequence is entered into the Epitope Mapping Software provided by Cambridge Research Biochemicals, and a set of replacement peptides is generated. This process was performed for the six amino acid residue immunodominant core epitope of HCV. The peptides were synthesized on polypropylene pins as directed by the manufacturer (CRB). The Assay format was identical to that followed for PEPSCAN above.\nThe Replacement Net of the core immunodominant epitope sequence Tyr-Leu-Leu-Pro-Arg-Arg (YLLPRR) (SEQ ID NO: 1 and 2) with the 12 paid donor human sera as described above was considered.\nFor each position within the epitope, the frequency of each replacement residue as an acceptable replacement for the parent sequence is given. Replacement residues were deemed acceptable when the signal of the new peptide was 80% of the parent sequence or greater.\nThe residue in italics is the parent sequence."}, "[3]": {"conditions": "listed as 2-Leucine L, epitope position 2-Leucine, residue L"}, "[4]": {"conditions": "listed as 3-Leucine L, epitope position 3-Leucine, residue L"}, "[5]": {"conditions": "listed as 5-Arginine R, epitope position 5-Arginine, residue R"}, "[6]": {"conditions": "listed as 6-Arginine R, epitope position 6-Arginine, residue R"}}, "note": "Ends that are not written are not given here.", "data": [{"substance": "YLLPRR [YLLPRR]", "values": [{"measurement": "Detection of the epitope by sera", "setting": "antibodies against HCV [1]", "value": "detected to a greater or lesser extent by all of the sera tested"}, {"measurement": "Frequency of relative signal strength: All", "setting": "antibodies against HCV [2]; listed as 1-Tyrosine Y", "value": 11}, {"measurement": "Frequency of relative signal strength: All", "setting": "antibodies against HCV [2]; [3]", "value": 8}, {"measurement": "Frequency of relative signal strength: All", "setting": "antibodies against HCV [2]; [4]", "value": 3}, {"measurement": "Frequency of relative signal strength: All", "setting": "antibodies against HCV [2]; listed as 4-Proline P", "value": 5}, {"measurement": "Frequency of relative signal strength: All", "setting": "antibodies against HCV [2]; [5]", "value": 10}, {"measurement": "Frequency of relative signal strength: All", "setting": "antibodies against HCV [2]; [6]", "value": 11}, {"measurement": "Frequency of relative signal strength: 2nd-5th", "setting": "antibodies against HCV [2]; listed as 1-Tyrosine Y", "value": 3}, {"measurement": "Frequency of relative signal strength: 6th-10th", "setting": "antibodies against HCV [2]; listed as 1-Tyrosine Y", "value": 5}, {"measurement": "Frequency of relative signal strength: Below 10th", "setting": "antibodies against HCV [2]; listed as 1-Tyrosine Y", "value": 1}, {"measurement": "Frequency of relative signal strength: Highest", "setting": "antibodies against HCV [2]; listed as 1-Tyrosine Y", "value": 2}, {"measurement": "Frequency of relative signal strength: 2nd-5th", "setting": "antibodies against HCV [2]; [3]", "value": 2}, {"measurement": "Frequency of relative signal strength: 6th-10th", "setting": "antibodies against HCV [2]; [3]", "value": 3}, {"measurement": "Frequency of relative signal strength: Below 10th", "setting": "antibodies against HCV [2]; [3]", "value": 2}, {"measurement": "Frequency of relative signal strength: Highest", "setting": "antibodies against HCV [2]; [3]", "value": 1}, {"measurement": "Frequency of relative signal strength: 2nd-5th", "setting": "antibodies against HCV [2]; [4]", "value": 0}, {"measurement": "Frequency of relative signal strength: 6th-10th", "setting": "antibodies against HCV [2]; [4]", "value": 1}, {"measurement": "Frequency of relative signal strength: Below 10th", "setting": "antibodies against HCV [2]; [4]", "value": 0}, {"measurement": "Frequency of relative signal strength: Highest", "setting": "antibodies against HCV [2]; [4]", "value": 2}, {"measurement": "Frequency of relative signal strength: 2nd-5th", "setting": "antibodies against HCV [2]; listed as 4-Proline P", "value": 1}, {"measurement": "Frequency of relative signal strength: 6th-10th", "setting": "antibodies against HCV [2]; listed as 4-Proline P", "value": 1}, {"measurement": "Frequency of relative signal strength: Below 10th", "setting": "antibodies against HCV [2]; listed as 4-Proline P", "value": 0}, {"measurement": "Frequency of relative signal strength: Highest", "setting": "antibodies against HCV [2]; listed as 4-Proline P", "value": 3}, {"measurement": "Frequency of relative signal strength: 2nd-5th", "setting": "antibodies against HCV [2]; [5]", "value": 2}, {"measurement": "Frequency of relative signal strength: 6th-10th", "setting": "antibodies against HCV [2]; [5]", "value": 1}, {"measurement": "Frequency of relative signal strength: Below 10th", "setting": "antibodies against HCV [2]; [5]", "value": 7}, {"measurement": "Frequency of relative signal strength: Highest", "setting": "antibodies against HCV [2]; [5]", "value": 0}, {"measurement": "Frequency of relative signal strength: 2nd-5th", "setting": "antibodies against HCV [2]; [6]", "value": 1}, {"measurement": "Frequency of relative signal strength: 6th-10th", "setting": "antibodies against HCV [2]; [6]", "value": 5}, {"measurement": "Frequency of relative signal strength: Below 10th", "setting": "antibodies against HCV [2]; [6]", "value": 3}, {"measurement": "Frequency of relative signal strength: Highest", "setting": "antibodies against HCV [2]; [6]", "value": 2}]}]}
